What follows are compounds tested against T1, recombinant human baculovirus-expressed GST-tagged FASN (Homo sapiens, UniProt P49327) (assay: biochemical). Settings: not given.
T1 construct: GST
T1 sequence (P49327 whole entry): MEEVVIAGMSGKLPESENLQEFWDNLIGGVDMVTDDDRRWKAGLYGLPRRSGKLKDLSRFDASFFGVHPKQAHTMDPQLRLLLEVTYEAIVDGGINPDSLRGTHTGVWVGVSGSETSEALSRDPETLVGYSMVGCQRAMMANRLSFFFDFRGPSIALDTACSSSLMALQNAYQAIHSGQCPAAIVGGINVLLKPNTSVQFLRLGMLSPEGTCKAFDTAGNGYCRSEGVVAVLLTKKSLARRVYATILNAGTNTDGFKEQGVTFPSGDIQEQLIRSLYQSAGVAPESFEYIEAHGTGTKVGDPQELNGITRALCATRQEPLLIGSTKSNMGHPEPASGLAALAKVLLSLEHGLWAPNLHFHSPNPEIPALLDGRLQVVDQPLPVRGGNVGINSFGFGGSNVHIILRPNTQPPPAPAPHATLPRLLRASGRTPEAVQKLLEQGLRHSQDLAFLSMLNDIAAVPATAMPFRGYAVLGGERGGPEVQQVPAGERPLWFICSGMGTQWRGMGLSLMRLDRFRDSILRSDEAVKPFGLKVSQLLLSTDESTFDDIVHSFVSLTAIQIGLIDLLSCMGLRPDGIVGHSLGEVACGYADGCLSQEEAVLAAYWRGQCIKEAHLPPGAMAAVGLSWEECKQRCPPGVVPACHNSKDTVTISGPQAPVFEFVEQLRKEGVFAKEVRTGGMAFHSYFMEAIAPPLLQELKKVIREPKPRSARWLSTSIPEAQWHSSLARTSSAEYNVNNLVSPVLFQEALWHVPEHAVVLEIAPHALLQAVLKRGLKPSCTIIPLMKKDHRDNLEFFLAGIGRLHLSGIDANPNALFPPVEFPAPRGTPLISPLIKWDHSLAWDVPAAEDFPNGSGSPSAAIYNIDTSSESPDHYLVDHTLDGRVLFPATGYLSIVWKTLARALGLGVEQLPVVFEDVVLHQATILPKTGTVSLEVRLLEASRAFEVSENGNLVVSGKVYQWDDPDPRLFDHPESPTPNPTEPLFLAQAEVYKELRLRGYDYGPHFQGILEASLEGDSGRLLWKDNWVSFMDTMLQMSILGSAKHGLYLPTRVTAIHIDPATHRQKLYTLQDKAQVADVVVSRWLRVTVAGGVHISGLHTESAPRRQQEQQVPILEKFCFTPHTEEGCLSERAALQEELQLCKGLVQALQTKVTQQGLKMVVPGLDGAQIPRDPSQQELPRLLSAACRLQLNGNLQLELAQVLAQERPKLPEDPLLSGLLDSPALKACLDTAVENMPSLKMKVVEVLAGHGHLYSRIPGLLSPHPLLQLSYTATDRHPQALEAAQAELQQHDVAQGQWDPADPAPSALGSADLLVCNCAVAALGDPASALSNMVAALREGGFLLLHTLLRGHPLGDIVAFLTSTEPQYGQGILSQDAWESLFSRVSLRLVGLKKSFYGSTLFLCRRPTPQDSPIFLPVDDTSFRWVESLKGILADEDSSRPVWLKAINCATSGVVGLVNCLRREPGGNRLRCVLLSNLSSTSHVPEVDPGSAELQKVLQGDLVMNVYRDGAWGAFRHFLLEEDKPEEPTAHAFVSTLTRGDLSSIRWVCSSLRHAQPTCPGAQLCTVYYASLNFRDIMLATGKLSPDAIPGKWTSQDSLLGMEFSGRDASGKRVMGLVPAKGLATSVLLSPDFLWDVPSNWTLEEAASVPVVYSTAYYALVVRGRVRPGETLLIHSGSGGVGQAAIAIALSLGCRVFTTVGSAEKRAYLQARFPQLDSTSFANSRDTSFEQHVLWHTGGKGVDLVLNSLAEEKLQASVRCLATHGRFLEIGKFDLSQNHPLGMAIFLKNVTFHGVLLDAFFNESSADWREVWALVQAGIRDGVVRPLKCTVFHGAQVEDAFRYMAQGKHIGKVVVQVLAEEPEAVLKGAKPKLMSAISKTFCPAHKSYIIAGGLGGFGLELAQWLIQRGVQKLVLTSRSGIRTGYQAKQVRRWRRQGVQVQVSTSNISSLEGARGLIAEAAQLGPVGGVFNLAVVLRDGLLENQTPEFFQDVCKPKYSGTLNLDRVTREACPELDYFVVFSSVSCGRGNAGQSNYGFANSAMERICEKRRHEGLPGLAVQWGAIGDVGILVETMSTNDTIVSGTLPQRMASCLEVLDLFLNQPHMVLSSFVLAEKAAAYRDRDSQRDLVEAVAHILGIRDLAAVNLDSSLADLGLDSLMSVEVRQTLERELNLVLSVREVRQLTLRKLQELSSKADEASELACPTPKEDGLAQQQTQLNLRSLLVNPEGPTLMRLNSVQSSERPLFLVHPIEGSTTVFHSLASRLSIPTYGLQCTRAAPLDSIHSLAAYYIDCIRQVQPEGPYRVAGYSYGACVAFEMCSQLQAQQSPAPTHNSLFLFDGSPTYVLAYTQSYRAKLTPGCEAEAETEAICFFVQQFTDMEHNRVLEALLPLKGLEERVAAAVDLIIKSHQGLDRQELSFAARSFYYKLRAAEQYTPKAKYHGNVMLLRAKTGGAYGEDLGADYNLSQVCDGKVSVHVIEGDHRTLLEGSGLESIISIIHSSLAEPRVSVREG
`Cc1c(-c2ccc3c(c2)COC2(CCN(C(N)=O)CC2)O3)ccc2cccnc12` [Example 118, 6-(8-Methyl-7-quinolyl)spiro[4H-1,3-benzodioxine-2,4′-piperidine]-1′-carboxamide] was tested, and the IC50 was 1 to 99 nM. In the case of `Cc1c(-c2ccc3c(c2)COC2(CCN(C(=O)NC(C)C)CC2)O3)ccc2cccnc12` [Example 119, N-Isopropyl-6-(8-methyl-7-quinolyl)spiro[4H-1,3-benzodioxine-2,4′-piperidine]-1′-carboxamide], the IC50 is reported as 1 to 99 nM. In the case of `CCONC(=O)N1CCC2(CC1)OCc1cc(-c3ccc4cccnc4c3C)ccc1O2` [Example 121, N-Ethoxy-6-(8-methyl-7-quinolyl)spiro[4H-1,3-benzodioxine-2,4′-piperidine]-1′-carboxamide], the IC50 is reported as 1 to 99 nM. `CONC(=O)N1CCC2(CC1)OCc1cc(-c3ccc4cccnc4c3C)ccc1O2` [Example 122, N-Methoxy-6-(8-methyl-7-quinolyl)spiro[4H-1,3-benzodioxine-2,4′-piperidine]-1′-carboxamide] was tested, and the IC50 was 1 to 99 nM. In the case of `Cc1c(-c2ccc3c(c2)COC2(CCN(C(=O)NOC(C)C)CC2)O3)ccc2cccnc12` [Example 123, N-Isopropoxy-6-(8-methyl-7-quinolyl)spiro[4H-1,3-benzodioxine-2,4′-piperidine]-1′-carboxamide], the IC50 is reported as 1 to 99 nM. `CCNC(=O)N1CCC2(CC1)OCc1cc(-c3ccc4ccnn4c3C)ccc1O2` [Example 126, N-Ethyl-6-(7-methylpyrazolo[1,5-a]pyridin-6-yl)spiro[4H-1,3-benzodioxine-2,4′-piperidine]-1′-carboxamide] was tested, and the IC50 was 1 to 99 nM. For `Cc1c(-c2ccc3c(c2)COC2(CCN(C(N)=O)CC2)O3)ccc2ccnn12` [Example 127, 6-(7-Methylpyrazolo[1,5-a]pyridin-6-yl)spiro[4H-1,3-benzodioxine-2,4′-piperidine]-1′-carboxamide], the IC50 was 100 to 999 nM. With `CONC(=O)N1CCC2(CC1)OCc1cc(-c3ccc4ccnn4c3C)ccc1O2` [Example 128, N-Methoxy-6-(7-methylpyrazolo[1,5-a]pyridin-6-yl)spiro[4H-1,3-benzodioxine-2,4′-piperidine]-1′-carboxamide] the IC50 was 1 to 99 nM. `CCONC(=O)N1CCC2(CC1)OCc1cc(-c3ccc4ccnn4c3C)ccc1O2` [Example 129, N-Ethoxy-6-(7-methylpyrazolo[1,5-a]pyridin-6-yl)spiro[4H-1,3-benzodioxine-2,4′-piperidine]-1′-carboxamide] showed an IC50 of 1 to 99 nM. `Cc1c(-c2ccc3c(c2)COC2(CCN(C(=O)NOC(C)C)CC2)O3)ccc2ccnn12` [Example 130, N-Isopropoxy-6-(7-methylpyrazolo[1,5-a]pyridin-6-yl)spiro[4H-1,3-benzodioxine-2,4′-piperidine]-1′-carboxamide] showed an IC50 of 1 to 99 nM. Work on `NC(=O)N1CCC2(CC1)OCc1cc(-c3ccc4cccnc4c3Cl)ccc1O2` [Example 131, 6-(8-Chloro-7-quinolyl)spiro[4H-1,3-benzodioxine-2,4′-piperidine]-1′-carboxamide] yielded an IC50 of 100 to 999 nM. Compound `Cc1c(-c2ccc3c(c2)COC2(CCN(C(N)=O)CC2)O3)cnc2ccccc12` [Example 132, 6-(4-Methyl-3-quinolyl)spiro[4H-1,3-benzodioxine-2,4′-piperidine]-1′-carboxamide] has an IC50 of 100 to 999 nM.

Same assay, conditions: 5 nM FASN, 150 μM NADPH, 10 μM acetyl-CoA, 25 μM malonyl-CoA, 90 minutes incubation; read-out: IC50 data for Compounds of Formula I, Activity
For `CONC(=O)N1CCC2(CCc3cc(-c4ccc5cccnc5c4C)ccc3O2)CC1` [Example 120, N-Methoxy-6-(8-methyl-7-quinolyl)spiro[chromane-2,4′-piperidine]-1′-carboxamide], the IC50 was 1 to 99 nM. `CONC(=O)N1CCC2(CCc3cc(-c4ccc5ccnn5c4C)ccc3O2)CC1` [Example 124, N-Methoxy-6-(7-methylpyrazolo[1,5-a]pyridin-6-yl)spiro[chromane-2,4′-piperidine]-1′-carboxamide] showed an IC50 of 1 to 99 nM. `Cc1c(-c2ccc3c(c2)CCC2(CCN(C(=O)NO)CC2)O3)ccc2ccnn12` [Example 125, 6-(7-Methylpyrazolo[1,5-a]pyridin-6-yl)spiro[chromane-2,4′-piperidine]-1′-carbohydroxamic acid] showed an IC50 of 1000 to 10000 nM.

Source: patent US12448392B2, “Spiropiperidine derivatives” (89BIO LTD, priority 2016, dated 2025)
